From patent US20240270821A1, “GIP/GLP1/GCG TRI-RECEPTOR AGONISTS AND USES THEREOF” (priority 2023, published 2024)
Where two headings read alike, the source gives them in different places. Starred links: 1 amine or outer side, 2 acyl side, 3 side chain; linkers in the order of their positions; H or OH if unused. Non-standard residues stand in square brackets, D forms with d. Groups on a side chain read outwards from the residue. No end group written: not given here. *: point of attachment. C18 diacid = O=C(O)CCCCCCCCCCCCCCCCC(=O)*; αMePhe(2-F) = C[C@](N)(Cc1ccccc1F)C(=O)O; γGlu = O=C(O)[C@H](CCC(=O)[*:2])N[*:1]; αMe4Pal = C[C@](N)(Cc1ccncc1)C(=O)O; αMeY = C[C@](N)(Cc1ccc(O)cc1)C(=O)O; 4Pal = N[C@@H](Cc1ccncc1)C(=O)O; αMeL = CC(C)C[C@](C)(N)C(=O)O; αMeS = C[C@](N)(CO)C(=O)O; Orn = NCCC[C@H](N)C(=O)O; Dab = NCC[C@H](N)C(=O)O; AEEA = NCCOCCOCC(=O)O; Aib = CC(C)(N)C(=O)O

Columns and labels:
Format in all cases: cell-based
[1] = target: T1, hGIPR (Homo sapiens, UniProt P48546); experiment: Functional cAMP activity in the presence of 1% HSA; details: read-out: cAMP Rel EC50, hGIPR
T1 sequence (P48546 22-466): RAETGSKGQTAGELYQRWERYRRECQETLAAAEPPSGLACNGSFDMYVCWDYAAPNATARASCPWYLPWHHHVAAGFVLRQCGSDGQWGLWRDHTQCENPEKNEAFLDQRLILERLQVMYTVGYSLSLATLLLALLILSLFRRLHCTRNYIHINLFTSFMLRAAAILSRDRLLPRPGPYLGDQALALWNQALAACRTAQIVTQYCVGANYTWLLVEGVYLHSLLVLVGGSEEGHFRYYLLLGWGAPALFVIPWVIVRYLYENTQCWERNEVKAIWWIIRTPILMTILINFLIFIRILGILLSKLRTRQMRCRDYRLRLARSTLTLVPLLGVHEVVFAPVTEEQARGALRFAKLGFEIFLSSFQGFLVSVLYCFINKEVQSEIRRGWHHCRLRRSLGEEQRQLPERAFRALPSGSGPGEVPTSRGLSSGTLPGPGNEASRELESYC

[2] = target: T2, hGLP-1R (Homo sapiens, UniProt P43220); experiment: Functional cAMP activity in the presence of 1% HSA; details: read-out: cAMP Rel EC50, hGLP-1R
T2 sequence (P43220 24-463): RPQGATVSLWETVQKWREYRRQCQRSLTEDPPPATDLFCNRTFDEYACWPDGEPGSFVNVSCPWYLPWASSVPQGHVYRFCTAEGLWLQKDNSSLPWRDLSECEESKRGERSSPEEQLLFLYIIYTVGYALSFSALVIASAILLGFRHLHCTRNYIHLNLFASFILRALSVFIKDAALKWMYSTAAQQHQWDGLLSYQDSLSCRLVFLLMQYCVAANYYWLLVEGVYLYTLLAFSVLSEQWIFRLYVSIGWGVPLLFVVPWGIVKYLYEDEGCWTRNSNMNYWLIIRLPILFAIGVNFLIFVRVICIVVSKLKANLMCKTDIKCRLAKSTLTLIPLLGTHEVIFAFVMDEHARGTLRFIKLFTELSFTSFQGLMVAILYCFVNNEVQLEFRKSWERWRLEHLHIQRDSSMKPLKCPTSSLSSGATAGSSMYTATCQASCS

[3] = target: human GcgR (Homo sapiens, UniProt P47871); experiment: Functional cAMP activity in the presence of 1% HSA; details: read-out: cAMP Rel EC50, hGcgR
human GcgR, sequence (P47871 26-477): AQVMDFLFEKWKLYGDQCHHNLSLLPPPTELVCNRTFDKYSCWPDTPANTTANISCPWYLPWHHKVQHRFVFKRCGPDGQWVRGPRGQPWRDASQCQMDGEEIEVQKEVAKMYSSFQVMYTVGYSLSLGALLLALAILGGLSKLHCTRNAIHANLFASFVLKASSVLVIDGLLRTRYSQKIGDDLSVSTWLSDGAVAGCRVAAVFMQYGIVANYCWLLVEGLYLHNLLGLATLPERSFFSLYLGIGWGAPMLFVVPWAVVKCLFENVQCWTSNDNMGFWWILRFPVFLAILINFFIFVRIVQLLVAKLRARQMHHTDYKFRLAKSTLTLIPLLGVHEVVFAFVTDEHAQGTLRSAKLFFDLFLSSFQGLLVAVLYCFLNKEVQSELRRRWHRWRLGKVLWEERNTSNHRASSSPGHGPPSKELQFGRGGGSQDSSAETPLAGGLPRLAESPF

[4] = target: T1, hGIPR; experiment: Functional cAMP activation in the presence of 0.1% casein (no HSA); details: read-out: Relative cAMP EC50, hGIPR;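 for Relative cAMP EC50, hGIPR: intracellular cAMP rise after 30 min at 37 °C read by HTRF against a standard curve, scaled between buffer alone (0%) and top control ligand concentration (100%), four-parameter fit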;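 for Relative cAMP EC50, hGLP-1R: intracellular cAMP rise after 30 min at 37 °C read by HTRF, normalized between buffer only (0%) and maximal control ligand (100%), four-parameter variable-slope fit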;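 for Relative cAMP EC50, hGcgR: intracellular cAMP rise after 30 min at 37 °C, read by HTRF against a cAMP standard curve, scaled from buffer only (0%) to maximal control ligand response (100%)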
[5] = target: T2, hGLP-1R; experiment: as above; details: read-out: Relative cAMP EC50, hGLP-1R
[6] = target: hGcgR (Homo sapiens, UniProt P47871); experiment: as above; details: read-out: Relative cAMP EC50, hGcgR;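 note: intracellular cAMP rise after 30 min at 37 °C, read by HTRF against a cAMP standard curve, scaled from buffer only (0%) to maximal control ligand response (100%)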
hGcgR, sequence (P47871 26-477): as above

[7] = in the presence of 0.1% casein (no HSA), geometric mean
[8] = HEK-293 clonal cell line, in the presence of 1% HSA, geometric mean of relative EC50

“H-Y[Aib]QGT[αMePhe(2-F)]TSD[4Pal][αMeS]I[αMeL]LD[Orn]K([γGlu-γGlu-C18 diacid])AQ[Aib][Orn]FI[dE]YLIEGGPSSGEPPPSGTEEE-NH2 [Example 540]” gave an EC50 [1] of 1.93 nM, an EC50 [2] of 38.2 nM and an EC50 [3] of 405 nM. For the same substance, the EC50 [4] was 0.0296 nM, the EC50 [5] was 0.686 nM and the EC50 [6] was 5.62 nM.

“H-Y[Aib]QGTFTSD[4Pal]SQ[αMeL]LD[Orn]K([dE-γGlu-C18 diacid])AQ[αMe4Pal]AFIE[αMeY]LIAGGPSSGAPPPSGSEE-NH2 [Example 1074]” was tested, and the EC50 [1] was 8.49 nM, the EC50 [2] was 101 nM and the EC50 [3] was 1990 nM. The EC50 [4, 7] was 0.0745 nM, the EC50 [5, 7] was 0.794 nM and the EC50 [6, 7] was 22.8 nM.

Work on “Y[Aib]QGT[αMePhe(2-F)]TSD[4Pal][αMeS]I[αMeL]LD[Orn]K([γGlu-γGlu-C18 diacid])AQ[Aib]QFI[dE][αMeY]LQEGGPSSGEPPPEGTE-NH2 [Example 528]” yielded an EC50 [1] of 1.55 nM, an EC50 [2] of 24.3 nM and an EC50 [3] of 474 nM. For the same substance, the EC50 [4] was 0.0333 nM, the EC50 [5] was 0.434 nM and the EC50 [6] was 7 nM.

“H-Y[Aib]QGTFTSDFS[Orn][αMeL]LDKK([γGlu-γGlu-C18 diacid])AQ[Aib]AFIEYLLE[Aib]GPSSGAPPPSGS-NH2 [Example 201]” was tested, and the EC50 [1] was 14.3 nM, the EC50 [2] was 679 nM and the EC50 [3] was 969 nM. The EC50 [4, 7] was 0.0553 nM, the EC50 [5, 7] was 3.16 nM and the EC50 [6, 7] was 3.84 nM.

In the case of “H-Y[Aib]QGT[αMePhe(2-F)]TSD[4Pal][αMeS]I[αMeL]LD[Orn]K([γGlu-γGlu-C18 diacid])AQ[Aib][Orn]FI[dE][αMeY]LIEGGPSSGEPPPSEG-NH2 [Example 480]”, the EC50 [1] is reported as 0.722 nM, the EC50 [2] is reported as 8.39 nM and the EC50 [3] is reported as 65.5 nM. The EC50 [4] was 0.0107 nM, the EC50 [5] was 0.215 nM and the EC50 [6] was 1.47 nM.

“H-Y[Aib]QGTFTSDFS[Orn][αMeL]LDKK([AEEA-AEEA-γGlu-C18 diacid])AQ[Aib]AFIEYLLE[dA]GPSSG[4Pal]PPPSG[4Pal]-NH2 [Example 258]” was tested, and the EC50 [1] was 23.3 nM, the EC50 [2] was 492 nM and the EC50 [3] was 1280 nM. It also gave an EC50 [4, 7] of 0.154 nM, an EC50 [5, 7] of 2.71 nM and an EC50 [6, 7] of 7.15 nM.

“H-Y[Aib]QGTFTSDFS[Dab][αMeL]LDKK([AEEA-γGlu-C18 diacid])AQ[Aib]AFIEYLLE[Aib]GPSSGAPPPSGS-NH2 [Example 133]” was tested, and the EC50 [1] was 23.1 nM, the EC50 [2] was 1180 nM and the EC50 [3] was 642 nM. The EC50 [4, 7] was 0.15 nM, the EC50 [5, 7] was 3.6 nM and the EC50 [6, 7] was 1.64 nM.

Work on “Y[Aib]QGTFTSD[4Pal]SQ[αMeL]LDKK([γGlu-γGlu-C18 diacid])AQ[αMe4Pal]AFIE[αMe4Pal]LIE[Aib]GPSSGAPPPSGSEE-NH2 [Example 1122]” yielded an EC50 [1, 8] of 4.54 nM, an EC50 [2, 8] of 177 nM and an EC50 [3, 8] of 474 nM. For the same substance, the EC50 [4, 7] was 0.109 nM, the EC50 [5, 7] was 5.66 nM and the EC50 [6, 7] was 10.3 nM.

With “H-Y[Aib]QGT[αMePhe(2-F)]TSD[4Pal][αMeS]I[αMeL]LD[Orn]K([AEEA-γGlu-C18 diacid])AQ[Aib]NFIEYLIEGGPSSGEPPPEGE-NH2 [Example 483]” the EC50 [1] was 1.17 nM, the EC50 [2] was 18.2 nM and the EC50 [3] was 231 nM. It also gave an EC50 [4] of 0.0133 nM, an EC50 [5] of 0.188 nM and an EC50 [6] of 1.77 nM.
